Laboratory results: patent US20100093643A1 (priority 2006, published 2010)
Where “and” joins values, the source holds several entries; their conditions need not be identical. Equal values may be shown once. Read-outs that look alike come from different tables or passages of the source.

What was measured:
[1] = test system: rats with ligature of coronary arteries; assay type: in vivo, rat; set-up: myocardial necrosis size: unit not given here; conditions: for CPK / HF-CPK / Lactate: blood; for Lethality %: rats with sharp myocardial ischemia
[2] = test system: BALB mice under normobaric hypoxic hypoxia; assay: Antihypoxic action, lifetime of mice under normobaric hypoxic hypoxia; assay type: in vivo, mouse
Protocol: Antihypoxic action of the new enkephalin analogue (1) was determined by the measurement of lifetime duration in mice under the normobaric hypoxic hypoxia conditions.
The experiments were conducted on BALB-bread mice weighing 20 to 22 g. The normobaric hypoxic hypoxia conditions were modelled by placing the animals in hermetic camera, containing Ca(OH)2 to absorb the excess of carbon dioxide. The substances studied were injected intraperitoneally 1 min. before the placing of animals in the hermetic camera. The peptides were used at doses 1.0 mg/kg. […] Sodium oxybutyrate at highest therapeutic dose was used as comparative compound. The lifetime was estimated as the time when the animals stopped making breathing movements.

outbreed male mice = assay: Analgesic activity in vivo, tail pinch method; set-up: species or system mouse
Protocol: Analgesic activity of enkephalin analogues was determined by a “tail pinch” method [Ueda H.; Amano H.; Shiomi H.; Takagi H. (1979). Eur. J. Pharmacol., 56, 265-268]. […] Ten mice were used in each experiment.
The studied substances were dissolved in sterile physiological solution and injected in J-shaped needles into the brain of conscious mice at a dose of 10 μl. Control animals received 10 μl of sterile physiological solution. Intravenous administration was into the tail vein. Analgesic activity was tested by pinching the mouse tail with an artery clip with 200 g pressure. The mice who bit the clip within one second after application of pinching were selected for assays. Analgesic activity was defined as latency on the biting response greater than 6 sec. The analgesic tests were performed 5, 15, 30, 60 and 90 min after administration and then every 30 min until the analgesic reaction was stopped. The analgesic activity of the peptides was expressed as a percentage of mice not showing the biting response.

CD-1 male mice = assay: Analgesic activity in vivo, hot plate method; set-up: species or system mouse
Protocol: Male Swiss albino mice (CD1), weighing 20-22 g were used throughout the study. The animals were housed in solid bottom polycarbonate cages with access to standard laboratory diet (Laboratory Rodent Diet PK-120) and tap water ad libitum, under controlled environmental conditions (temperature:18-26° C., 8 a.m. to 8 p.m. light-dark cycle). Mice were tested only once.
The Hot-plate-meter represents the thermostatic controllable, electro-heated up surface limited by transparent walls (L: 25 cm, W: 25 cm, H: 35 cm). The forward panel of the device is equipped by buttons for the control of time and a temperature mode (Columbus Instruments).
The i.v. administration was performed via tail vein as a bolus injection. The doses for all animals were calculated on the basis of the last value of the individual body weight.
The animals accurately were placed on the preheated hot plate (55±0.5° C.) after i.v. injection of saline or peptides and the latencies to first paw licking and first jumping were measured. The other behavioral reactions were ignored. The animals were removed from a hot surface after the first jumping. A cut-off time of 180 s was used to avoid tissue damage.
To evaluate the hot-plate test responses, the control latencies (t0) and test latencies (t1) were determined after injection of saline or peptides, respectively. The percentage of the maximal possible effect (% MPE) was calculated as % MPE=(t1−t0)/(t2−t0)×100, where the cut-off time (t2) was 180 s.
The latency for the first jumping is considered as the most indicative in the hot-plate test. The area under the time-response curve was calculated by methods described elsewhere (Cicero and Meyer, 1973), to assess the magnitude of antinociception (FIG. 5, see appendix).
The median analgesic dose (ED50) also has been calculated for this parameter.

[3] = target: T1, peripheral opiate receptors, guinea pig ileum (GPI, predominantly μ-type of opioid receptor) (Cavia porcellus, UniProt A0ACM8Q262); conditions: GPI assay
T1 construct: other: guinea pig ileum longitudinal muscle, electrical stimulation; GPI Relative potency, %; other: GPI assay

[4] = test system: peripheral opiate receptors, guinea pig ileum (GPI, predominantly μ-type of opioid receptor); conditions: ratio of relative potencies GPI to MVD
[5] = test system: peripheral opiate receptors, mouse vas deferens (MVD); assay: MVD bioassay, suppression of electrically induced contraction
Protocol: Brit. J. Pharmacol., 35, 10-28]. The longitudinal muscle of ileum from guinea pig of any sex (weight 350-500 g) was carefully separated from underlying circular muscle and placed into a small bath with Krebs solution at 36° C.
The solution was constantly aerated. A constant load of 0.2 g was applied to the tissue. The tissue was stimulated by means of the ring platinum electrodes by single impulses of […] duration with 0.1 Hz frequency. […] Vas deferens of mice (weight 27 to 30 g) were placed into a bath with modified Krebs solution (not containing magnesium sulphate) at 31° C. The substances under study were dissolved in distilled water. The inhibiting activity of the compounds was determined by accumulating doses, adding increasing concentrations of the compounds without washing. The activity of the preparations was expressed as IC50 in nmol/l. The results obtained in 8-10 tests were statistically processed using Student's criterion.

[6] = 6 hours after ligature, compound (1) 0.05 mg/kg
[7] = 24 hours after ligature, compound (1) 0.05 mg/kg, nitroglycerine highest therapeutic dose

T1 sequence (A0ACM8Q262 1-400): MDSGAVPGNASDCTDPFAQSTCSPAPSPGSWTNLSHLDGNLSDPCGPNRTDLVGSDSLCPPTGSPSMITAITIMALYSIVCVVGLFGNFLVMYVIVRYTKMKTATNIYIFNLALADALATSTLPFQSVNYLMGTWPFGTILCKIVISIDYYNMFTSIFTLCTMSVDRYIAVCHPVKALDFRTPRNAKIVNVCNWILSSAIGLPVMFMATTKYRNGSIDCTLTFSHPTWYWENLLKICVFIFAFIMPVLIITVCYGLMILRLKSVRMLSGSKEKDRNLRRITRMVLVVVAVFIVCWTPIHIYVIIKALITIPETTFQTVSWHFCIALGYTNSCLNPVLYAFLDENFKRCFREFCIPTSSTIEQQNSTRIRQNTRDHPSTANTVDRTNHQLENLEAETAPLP

CC(=O)NCCCC(NC(=O)C(N)Cc1ccc(O)cc1)C(=O)NCC(=O)NC(Cc1ccc([N+](=O)[O-])cc1)C(N)=O [Peptide 1, Tyr-(N^δ—Ac)-D-Orn-Gly-Phe(p-NO2)—NH2] gave a myocardial necrosis size ([1]; 0.05 mg/kg i.p. 30 min after coronary occlusion, observation time 6 hours) of 40.70 ± 1.52, a myocardial necrosis size ([1]; 0.05 mg/kg i.p. 30 min after coronary occlusion, observation time 12 hours) of 47.51 ± 1.63 and a myocardial necrosis size ([1]; 0.5 mg/kg i.p. 30 min after coronary occlusion, observation time 6 hours) of 40.05 ± 1.93. The myocardial necrosis size ([1]; 0.5 mg/kg i.p. 30 min after coronary occlusion, observation time 12 hours) was 46.64 ± 2.20, the Glycogen of heart [1, 6] was 1.00 ± 0.12 g/kg and the Glycogen of liver [1, 6] was 6.98 ± 1.02 g/kg. The Glycogen of heart ([1]; 24 hours after ligature, compound (1) 0.05 mg/kg) was 1.11 ± 0.17 g/kg, the CPK [1, 6] was 93.5 ± 5.3 units/l and the HF-CPK [1, 6] was 15.3 ± 0.7 units/l. The Lactate [1, 6] was 1.61 ± 0.45 mmol/L, the CPK [1, 7] was 86.6 ± 4.9 units/l and the HF-CPK [1, 7] was 12.3 ± 0.7 units/l. For the same compound, the Lactate [1, 7] was 1.70 ± 0.09 mmol/L, the Lethality % ([1]; 0.05 mg/kg) was 33% and the Lethality % ([1]; 0.5 mg/kg) was 27%. For the same compound, the “lifetime longer than in the control experiments” value ([2]; 1.0 mg/kg i.p.) was 57%, the Duration of life ([2]; 1.0 mg/kg i.p. 1 min before hermetic chamber) was 16.9 ± 1.1 min and the “Duration of analgesic effect at ED60-80” value (outbreed male mice; intracisternal administration) was 120 min. For the same compound, the “ED50 nmol/animal (dose interval)” value (outbreed male mice; intracisternal administration) was 0.02 (0.01-0.04) nmol/animal, the “Relative analgesic activity morphine = 1” value (outbreed male mice; intracisternal administration) was 60 and the “Duration of analgesic effect at ED60-80” value (outbreed male mice; intravenous administration) was 60 min. For the same compound, the “ED50 μmol/kg (dose interval)” value (outbreed male mice; intravenous administration) was 8.0 (0-25) μmol/kg, the “Relative analgesic activity morphine = 1” value (outbreed male mice; intravenous administration) was 2 and 2.2 and the “ED50 (jump latency)” value (CD-1 male mice; intravenous administration, time point of 15 min) was 1.27 mg/kg. The “analgesic activity exceeding that of morphine” value (CD-1 male mice; intravenous, from ED50 at 15 min) was 2 times, the “activity compared with morphine” value [3] was “more active than morphine by one order” and the GPIrel/MVDrel [4] was 46. For the same compound, the “MVD Relative potency, %” value ([5]; [Leu^5]-enkephalin = 100) was 52% and the IC50 ([5]; mouse vas deferens, electrical stimulation) was 38.5 ± 20.1 nM.
